Experimental findings from patent US20250032526A1, “COMPOSITION, METHOD FOR PREPARING SAME, AND USE THEREOF” (priority 2022, published 2025) are described below.

Data set [1] can be described thus: Stability investigation of related substance (capsules). It counts as physicochemical. To be noted: 0 day. An excerpt: The capsules provided by the present invention were taken and separately put under the conditions shown in Table 18 to investigate the stability.
A short description of data set [2]: Compatibility of raw material and auxiliary material (content measurement). It counts as physicochemical. As to the method: The mixture was allowed to stand at 60° C. high temperature condition (60° C.), high humidity condition (25° C., 92.5% RH), acceleration condition (40° C.±2° C., 75% RH±5%), and light condition (4500 1×±500 1×) for 10 days and 30 days, and then taken out to detect the content and the change of the related substance.

Structures are written as SMILES.

With `N#C[C@@]1(c2ccc3c(N)ncnn23)O[C@H](COC(=O)C2CCCCC2)[C@@H](O)[C@H]1O` [ATV014], in data set [1], the “Impurity (%) RRT 0.42” value was found to be 0.47%, the “Impurity (%) RRT 0.49 (0.48)” value is on record as 0.19%, the “Impurity (%) RRT 1.16” value amounted to 0.75% and the “Impurity (%) RRT 1.42 (1.38)” value was determined as 0.53%. Also, in data set [1], the “Impurity (%) RRT 1.44 (1.40)” value is 0.16%, the “Impurity (%) RRT 1.70 (1.65)” value was determined as 0.04% and the “Impurity (%) Total” value worked out at 2.10%. Moreover, the “Content measurement result, 25° C./92.5% RH, open, 10 day” value in data set [2] (25° C./92.5% RH, 10 day) is listed as 100.3%. Further, the “Content measurement result, 60° C., open, 10 day” value in data set [2] (60° C., 10 day) is reported as 100.3%. Further, the “Content measurement result, 60° C., open, 30 day” value in data set [2] (60° C., 30 day) was 100.5%.
